The kinase profiling compilation of Christmann-Franck et al. (2016)

Key:
Test in all cases: radiometric filter-binding kinase assay, Kinase HotSpot
Conditions in all cases: compound 0.5 µM; ATP 10 µM
CDC42BPA (human) = CDC42BPA (human) (UniProt Q5VT25)
NEK7 (human) = NEK7 (human) (UniProt Q8TDX7)
ALK (human) = ALK (human) (UniProt Q9UM73)
STK24 (human) = STK24 (human) (UniProt Q9Y6E0)
LIMK1 (human) = LIMK1 (human) (UniProt P53667)
CAMK1D (human) = CAMK1D (human) (UniProt Q8IU85)
RPS6KB2 (human) = RPS6KB2 (human) (UniProt Q9UBS0)
HIPK1 (human) = HIPK1 (human) (UniProt Q86Z02)
PHKG1 (human) = PHKG1 (human) (UniProt Q16816)
CSNK1A1 (human) = CSNK1A1 (human) (UniProt P48729)
RPS6KA4 KD2 (human) = RPS6KA4 KD2 (human) (UniProt O75676)
ACVRL1 (human) = ACVRL1 (human) (UniProt P37023)
TAOK3 (human) = TAOK3 (human) (UniProt Q9H2K8)
FER (human) = FER (human) (UniProt P16591)
ULK1 (human) = ULK1 (human) (UniProt O75385)
TEC (human) = TEC (human) (UniProt P42680)
FGFR3 (human) = FGFR3 (human) (UniProt P22607)
SLK (human) = SLK (human) (UniProt Q9H2G2)
MELK (human) = MELK (human) (UniProt Q14680)
ACVR1B (human) = ACVR1B (human) (UniProt P36896)
PRKCH (human) = PRKCH (human) (UniProt P24723)
PIM3 (human) = PIM3 (human) (UniProt Q86V86)
KDR (human) = KDR (human) (UniProt P35968)
MATK (human) = MATK (human) (UniProt P42679)
NLK (human) = NLK (human) (UniProt Q9UBE8)
MAP3K14 (human) = MAP3K14 (human) (UniProt Q99558)
PKN1 (human) = PKN1 (human) (UniProt Q16512)
PTK2 (human) = PTK2 (human) (UniProt Q05397)
RET (human) = RET (human) (UniProt P07949)
HIPK3 (human) = HIPK3 (human) (UniProt Q9H422)
TNK2 (human) = TNK2 (human) (UniProt Q07912)
PRKACG (human) = PRKACG (human) (UniProt P22612)
PDGFRA (human) = PDGFRA (human) (UniProt P16234)
MAP3K3 (human) = MAP3K3 (human) (UniProt Q99759)
MAP2K2 (human) = MAP2K2 (human) (UniProt P36507)
MYO3B (human) = MYO3B (human) (UniProt Q8WXR4)
PRKX (human) = PRKX (human) (UniProt P51817)
VRK1 (human) = VRK1 (human) (UniProt Q99986)
CSF1R (human) = CSF1R (human) (UniProt P07333)
AURKC (human) = AURKC (human) (UniProt Q9UQB9)
ERBB4 (human) = ERBB4 (human) (UniProt Q15303)
OXSR1 (human) = OXSR1 (human) (UniProt O95747)

PRKACG (human), sequence (P22612 whole entry, looked up): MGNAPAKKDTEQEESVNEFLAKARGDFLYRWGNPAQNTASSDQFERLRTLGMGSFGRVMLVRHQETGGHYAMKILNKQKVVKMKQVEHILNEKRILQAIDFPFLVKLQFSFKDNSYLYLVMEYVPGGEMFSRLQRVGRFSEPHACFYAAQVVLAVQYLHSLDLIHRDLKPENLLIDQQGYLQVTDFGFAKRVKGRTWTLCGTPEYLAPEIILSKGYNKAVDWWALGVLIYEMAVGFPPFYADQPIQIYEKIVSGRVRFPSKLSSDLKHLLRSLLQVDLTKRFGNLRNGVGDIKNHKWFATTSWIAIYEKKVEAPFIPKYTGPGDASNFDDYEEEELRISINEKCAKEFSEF
PRKX (human), sequence (P51817 whole entry, looked up): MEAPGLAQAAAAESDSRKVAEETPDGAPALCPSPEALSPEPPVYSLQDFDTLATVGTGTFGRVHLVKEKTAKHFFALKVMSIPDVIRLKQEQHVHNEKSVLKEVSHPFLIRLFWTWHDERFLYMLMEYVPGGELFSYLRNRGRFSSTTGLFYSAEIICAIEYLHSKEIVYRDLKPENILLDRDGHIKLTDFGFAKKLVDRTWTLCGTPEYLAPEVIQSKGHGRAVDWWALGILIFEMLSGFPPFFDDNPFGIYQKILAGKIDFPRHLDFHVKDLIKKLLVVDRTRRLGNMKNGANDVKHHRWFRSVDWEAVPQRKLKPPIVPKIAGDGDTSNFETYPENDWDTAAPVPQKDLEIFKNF
RET (human), sequence (P07949 whole entry, looked up): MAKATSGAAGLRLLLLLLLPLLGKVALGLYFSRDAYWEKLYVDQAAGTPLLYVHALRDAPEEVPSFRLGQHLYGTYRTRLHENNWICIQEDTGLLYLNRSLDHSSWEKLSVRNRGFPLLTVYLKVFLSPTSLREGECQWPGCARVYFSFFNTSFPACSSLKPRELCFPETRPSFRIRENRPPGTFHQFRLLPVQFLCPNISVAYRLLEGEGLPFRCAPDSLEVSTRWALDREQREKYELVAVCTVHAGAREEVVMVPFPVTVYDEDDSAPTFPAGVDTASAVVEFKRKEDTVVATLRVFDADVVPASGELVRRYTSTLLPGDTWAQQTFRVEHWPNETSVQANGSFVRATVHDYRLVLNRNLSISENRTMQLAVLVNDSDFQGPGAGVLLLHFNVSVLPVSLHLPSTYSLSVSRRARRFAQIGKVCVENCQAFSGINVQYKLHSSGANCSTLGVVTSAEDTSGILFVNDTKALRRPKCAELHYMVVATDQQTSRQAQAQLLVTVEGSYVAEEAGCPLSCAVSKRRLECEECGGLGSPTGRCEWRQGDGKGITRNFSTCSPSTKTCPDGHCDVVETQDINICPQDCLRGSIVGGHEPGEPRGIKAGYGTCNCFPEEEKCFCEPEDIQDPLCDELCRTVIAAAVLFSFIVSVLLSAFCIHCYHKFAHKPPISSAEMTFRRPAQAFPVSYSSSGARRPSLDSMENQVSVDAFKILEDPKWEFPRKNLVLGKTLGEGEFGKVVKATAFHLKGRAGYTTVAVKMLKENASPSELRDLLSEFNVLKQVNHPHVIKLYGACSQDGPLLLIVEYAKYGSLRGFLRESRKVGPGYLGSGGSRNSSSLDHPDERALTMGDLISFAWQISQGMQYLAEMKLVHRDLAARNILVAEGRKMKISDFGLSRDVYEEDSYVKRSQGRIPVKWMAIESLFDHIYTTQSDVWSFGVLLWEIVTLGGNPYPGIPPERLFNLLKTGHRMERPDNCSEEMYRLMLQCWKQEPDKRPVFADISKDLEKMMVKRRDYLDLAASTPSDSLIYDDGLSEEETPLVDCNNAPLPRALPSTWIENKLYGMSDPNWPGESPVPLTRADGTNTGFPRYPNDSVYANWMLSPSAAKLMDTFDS
PRKCH (human), sequence (P24723 whole entry, looked up): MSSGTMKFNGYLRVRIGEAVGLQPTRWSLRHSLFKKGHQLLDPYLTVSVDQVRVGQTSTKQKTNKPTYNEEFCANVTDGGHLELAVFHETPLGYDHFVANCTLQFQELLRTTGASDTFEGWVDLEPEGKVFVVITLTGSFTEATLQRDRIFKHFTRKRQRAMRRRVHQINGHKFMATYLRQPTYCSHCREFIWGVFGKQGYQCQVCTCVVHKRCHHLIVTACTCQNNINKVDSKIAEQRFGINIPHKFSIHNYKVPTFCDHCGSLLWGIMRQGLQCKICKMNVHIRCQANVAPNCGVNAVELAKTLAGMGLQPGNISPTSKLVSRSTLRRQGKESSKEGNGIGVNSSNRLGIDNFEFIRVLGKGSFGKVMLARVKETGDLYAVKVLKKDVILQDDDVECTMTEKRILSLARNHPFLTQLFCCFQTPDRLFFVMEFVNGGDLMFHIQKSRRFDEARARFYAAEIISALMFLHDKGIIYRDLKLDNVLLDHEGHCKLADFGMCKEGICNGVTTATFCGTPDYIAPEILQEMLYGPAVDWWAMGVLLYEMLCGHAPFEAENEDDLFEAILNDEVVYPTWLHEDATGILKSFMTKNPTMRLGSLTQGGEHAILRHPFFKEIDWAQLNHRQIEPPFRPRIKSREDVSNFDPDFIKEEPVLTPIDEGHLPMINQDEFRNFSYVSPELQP
VRK1 (human), sequence (Q99986 whole entry, looked up): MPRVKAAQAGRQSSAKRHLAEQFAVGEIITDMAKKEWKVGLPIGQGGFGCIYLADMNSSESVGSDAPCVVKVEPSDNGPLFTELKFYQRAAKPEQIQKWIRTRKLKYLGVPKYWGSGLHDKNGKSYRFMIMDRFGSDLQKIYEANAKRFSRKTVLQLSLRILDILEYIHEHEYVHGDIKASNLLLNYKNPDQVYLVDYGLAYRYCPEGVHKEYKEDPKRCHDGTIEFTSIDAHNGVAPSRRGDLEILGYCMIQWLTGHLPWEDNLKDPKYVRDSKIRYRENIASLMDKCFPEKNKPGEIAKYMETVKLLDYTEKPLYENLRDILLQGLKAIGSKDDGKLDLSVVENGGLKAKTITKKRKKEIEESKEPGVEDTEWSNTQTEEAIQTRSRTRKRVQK
PDGFRA (human), sequence (P16234 whole entry, looked up): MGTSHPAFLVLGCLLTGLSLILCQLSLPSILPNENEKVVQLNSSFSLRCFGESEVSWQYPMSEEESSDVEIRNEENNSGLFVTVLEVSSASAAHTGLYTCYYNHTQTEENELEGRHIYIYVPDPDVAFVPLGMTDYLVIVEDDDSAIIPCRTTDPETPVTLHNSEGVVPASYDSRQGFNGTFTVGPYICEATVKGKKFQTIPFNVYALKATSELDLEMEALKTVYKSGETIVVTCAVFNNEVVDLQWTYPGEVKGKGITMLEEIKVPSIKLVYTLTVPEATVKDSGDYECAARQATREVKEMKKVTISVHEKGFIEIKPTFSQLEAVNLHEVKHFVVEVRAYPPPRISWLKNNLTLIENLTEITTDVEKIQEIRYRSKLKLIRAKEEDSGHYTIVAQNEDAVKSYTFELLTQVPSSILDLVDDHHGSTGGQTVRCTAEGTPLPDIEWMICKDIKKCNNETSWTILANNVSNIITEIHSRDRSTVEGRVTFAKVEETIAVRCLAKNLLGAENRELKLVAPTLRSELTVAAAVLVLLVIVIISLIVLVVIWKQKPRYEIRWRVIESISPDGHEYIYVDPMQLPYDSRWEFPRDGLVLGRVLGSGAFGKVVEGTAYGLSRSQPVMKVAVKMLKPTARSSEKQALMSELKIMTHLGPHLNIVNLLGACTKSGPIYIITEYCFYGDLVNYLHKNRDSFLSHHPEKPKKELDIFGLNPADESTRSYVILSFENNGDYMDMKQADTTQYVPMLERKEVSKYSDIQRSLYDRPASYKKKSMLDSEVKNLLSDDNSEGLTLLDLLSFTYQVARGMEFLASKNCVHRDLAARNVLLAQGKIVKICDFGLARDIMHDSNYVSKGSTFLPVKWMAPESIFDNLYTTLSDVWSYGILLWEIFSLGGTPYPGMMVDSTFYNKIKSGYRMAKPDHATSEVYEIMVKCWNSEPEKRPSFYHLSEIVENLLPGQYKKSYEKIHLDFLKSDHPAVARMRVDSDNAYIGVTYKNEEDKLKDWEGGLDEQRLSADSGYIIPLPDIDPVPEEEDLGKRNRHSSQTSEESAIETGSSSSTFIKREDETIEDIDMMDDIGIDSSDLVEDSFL
PTK2 (human), sequence (Q05397 whole entry, looked up): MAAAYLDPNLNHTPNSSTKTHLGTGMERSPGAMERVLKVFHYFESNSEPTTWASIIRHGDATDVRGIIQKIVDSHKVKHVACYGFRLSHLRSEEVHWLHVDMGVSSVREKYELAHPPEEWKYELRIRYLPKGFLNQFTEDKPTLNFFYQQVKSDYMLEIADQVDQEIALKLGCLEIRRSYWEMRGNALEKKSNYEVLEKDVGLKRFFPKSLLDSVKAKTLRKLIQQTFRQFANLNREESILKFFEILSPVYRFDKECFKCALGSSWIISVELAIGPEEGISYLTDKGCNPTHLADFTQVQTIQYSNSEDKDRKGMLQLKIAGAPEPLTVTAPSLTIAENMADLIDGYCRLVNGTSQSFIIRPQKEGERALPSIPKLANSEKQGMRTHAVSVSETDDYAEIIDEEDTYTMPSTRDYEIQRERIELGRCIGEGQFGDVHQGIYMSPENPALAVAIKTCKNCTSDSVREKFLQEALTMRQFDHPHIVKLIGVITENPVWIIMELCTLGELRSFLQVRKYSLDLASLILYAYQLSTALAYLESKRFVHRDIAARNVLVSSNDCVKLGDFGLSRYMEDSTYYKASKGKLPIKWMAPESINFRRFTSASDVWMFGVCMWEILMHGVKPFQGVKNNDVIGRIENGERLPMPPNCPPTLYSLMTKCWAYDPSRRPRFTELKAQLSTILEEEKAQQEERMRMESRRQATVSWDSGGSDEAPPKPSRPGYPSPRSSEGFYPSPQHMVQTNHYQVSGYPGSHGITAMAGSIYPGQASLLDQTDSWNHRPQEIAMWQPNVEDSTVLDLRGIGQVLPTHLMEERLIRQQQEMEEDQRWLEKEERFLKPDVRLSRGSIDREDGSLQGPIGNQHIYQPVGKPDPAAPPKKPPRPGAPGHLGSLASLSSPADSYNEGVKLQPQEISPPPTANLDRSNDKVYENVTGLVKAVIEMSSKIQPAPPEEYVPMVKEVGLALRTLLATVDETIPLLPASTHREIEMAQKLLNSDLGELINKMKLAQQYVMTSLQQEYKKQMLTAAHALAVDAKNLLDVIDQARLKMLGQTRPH

`N#CC(C#N)=C(N)/C(C#N)=C/c1ccc(O)cc1` was tested, and the residual activity (CDC42BPA (human)) was 96.2%, the residual activity (NEK7 (human)) was 98.9% and the residual activity (ALK (human)) was 109%. It also gave a residual activity (STK24 (human)) of 103%, a residual activity (LIMK1 (human)) of 89.9% and a residual activity (CAMK1D (human)) of 98.9%. It also gave a residual activity (RPS6KB2 (human)) of 96.8%, a residual activity (HIPK1 (human)) of 103% and a residual activity (PHKG1 (human)) of 92.5%. For the same molecule, the residual activity (CSNK1A1 (human)) was 85%, the residual activity (RPS6KA4 KD2 (human)) was 99.7% and the residual activity (ACVRL1 (human)) was 88.8%. It also gave a residual activity (TAOK3 (human)) of 102%, a residual activity (FER (human)) of 91.1% and a residual activity (ULK1 (human)) of 89.3%. It also gave a residual activity (TEC (human)) of 94.7%, a residual activity (FGFR3 (human)) of 98.9% and a residual activity (SLK (human)) of 102%. It also gave a residual activity (MELK (human)) of 101%, a residual activity (ACVR1B (human)) of 101% and a residual activity (PRKCH (human)) of 90.3%. The residual activity (PIM3 (human)) was 91.3%, the residual activity (KDR (human)) was 97.2% and the residual activity (MATK (human)) was 92.5%. It also gave a residual activity (NLK (human)) of 96.7%, a residual activity (MAP3K14 (human)) of 108% and a residual activity (PKN1 (human)) of 89%. The residual activity (PTK2 (human)) was 98.5%, the residual activity (RET (human)) was 110% and the residual activity (HIPK3 (human)) was 102%. It also gave a residual activity (TNK2 (human)) of 98.1%, a residual activity (PRKACG (human)) of 96.8% and a residual activity (PDGFRA (human)) of 97.8%. It also gave a residual activity (MAP3K3 (human)) of 78.6%, a residual activity (MAP2K2 (human)) of 103% and a residual activity (MYO3B (human)) of 88.1%. The residual activity (PRKX (human)) was 93.7%, the residual activity (VRK1 (human)) was 103% and the residual activity (CSF1R (human)) was 98%. The residual activity (AURKC (human)) was 101%, the residual activity (ERBB4 (human)) was 92.7% and the residual activity (OXSR1 (human)) was 72.2%.
`Nc1ccc2ncnc(NCCc3ccc(Oc4ccccc4)cc3)c2c1` showed a residual activity (CDC42BPA (human)) of 102%, a residual activity (NEK7 (human)) of 96% and a residual activity (ALK (human)) of 108%. For the same molecule, the residual activity (STK24 (human)) was 107%, the residual activity (LIMK1 (human)) was 101% and the residual activity (CAMK1D (human)) was 102%. It also gave a residual activity (RPS6KB2 (human)) of 99.2%, a residual activity (HIPK1 (human)) of 104% and a residual activity (PHKG1 (human)) of 96.4%. It also gave a residual activity (CSNK1A1 (human)) of 102%, a residual activity (RPS6KA4 KD2 (human)) of 107% and a residual activity (ACVRL1 (human)) of 93.5%. The residual activity (TAOK3 (human)) was 102%, the residual activity (FER (human)) was 99.5% and the residual activity (ULK1 (human)) was 105%. For the same molecule, the residual activity (TEC (human)) was 88.3%, the residual activity (FGFR3 (human)) was 101% and the residual activity (SLK (human)) was 102%. It also gave a residual activity (MELK (human)) of 96.8%, a residual activity (ACVR1B (human)) of 101% and a residual activity (PRKCH (human)) of 97.9%. It also gave a residual activity (PIM3 (human)) of 104%, a residual activity (KDR (human)) of 91.7% and a residual activity (MATK (human)) of 89.6%. For the same molecule, the residual activity (NLK (human)) was 104%, the residual activity (MAP3K14 (human)) was 109% and the residual activity (PKN1 (human)) was 105%. For the same molecule, the residual activity (PTK2 (human)) was 98.6%, the residual activity (RET (human)) was 101% and the residual activity (HIPK3 (human)) was 98.6%. It also gave a residual activity (TNK2 (human)) of 102%, a residual activity (PRKACG (human)) of 110% and a residual activity (PDGFRA (human)) of 98.5%. It also gave a residual activity (MAP3K3 (human)) of 106%, a residual activity (MAP2K2 (human)) of 94.9% and a residual activity (MYO3B (human)) of 96.6%. The residual activity (PRKX (human)) was 104%, the residual activity (VRK1 (human)) was 99.5% and the residual activity (CSF1R (human)) was 106%. It also gave a residual activity (AURKC (human)) of 96%, a residual activity (ERBB4 (human)) of 70.2% and a residual activity (OXSR1 (human)) of 101%.
`N#C/C(=C(/N)Sc1ccc(N)cc1)c1ccccc1C(F)(F)F` gave a residual activity (CDC42BPA (human)) of 103%, a residual activity (NEK7 (human)) of 93.9% and a residual activity (ALK (human)) of 100%. It also gave a residual activity (STK24 (human)) of 89.3%, a residual activity (LIMK1 (human)) of 98.7% and a residual activity (CAMK1D (human)) of 129%. For the same molecule, the residual activity (RPS6KB2 (human)) was 105%, the residual activity (HIPK1 (human)) was 107% and the residual activity (PHKG1 (human)) was 95.8%. The residual activity (CSNK1A1 (human)) was 82.9%, the residual activity (RPS6KA4 KD2 (human)) was 112% and the residual activity (ACVRL1 (human)) was 106%. It also gave a residual activity (TAOK3 (human)) of 98.6%, a residual activity (FER (human)) of 105% and a residual activity (ULK1 (human)) of 99.6%. The residual activity (TEC (human)) was 109%, the residual activity (FGFR3 (human)) was 98.5% and the residual activity (SLK (human)) was 102%. It also gave a residual activity (MELK (human)) of 96.1%, a residual activity (ACVR1B (human)) of 101% and a residual activity (PRKCH (human)) of 96.4%. For the same molecule, the residual activity (PIM3 (human)) was 111%, the residual activity (KDR (human)) was 94.4% and the residual activity (MATK (human)) was 90.7%. It also gave a residual activity (NLK (human)) of 108%, a residual activity (MAP3K14 (human)) of 111% and a residual activity (PKN1 (human)) of 104%. The residual activity (PTK2 (human)) was 101%, the residual activity (RET (human)) was 101% and the residual activity (HIPK3 (human)) was 114%. For the same molecule, the residual activity (TNK2 (human)) was 100%, the residual activity (PRKACG (human)) was 101% and the residual activity (PDGFRA (human)) was 99.5%. It also gave a residual activity (MAP3K3 (human)) of 97.7%, a residual activity (MAP2K2 (human)) of 94.5% and a residual activity (MYO3B (human)) of 98.3%. It also gave a residual activity (PRKX (human)) of 98.9%, a residual activity (VRK1 (human)) of 100% and a residual activity (CSF1R (human)) of 101%. For the same molecule, the residual activity (AURKC (human)) was 97.5%, the residual activity (ERBB4 (human)) was 89.9% and the residual activity (OXSR1 (human)) was 101%.
`CCOC(=O)c1c(C)[nH]c(/C=C2\C(=O)Nc3ccccc32)c1C` was tested, and the residual activity (CDC42BPA (human)) was 85.7%, the residual activity (NEK7 (human)) was 102% and the residual activity (ALK (human)) was 79.2%. For the same molecule, the residual activity (STK24 (human)) was 82.5%, the residual activity (LIMK1 (human)) was 81.3% and the residual activity (CAMK1D (human)) was 93.1%. For the same molecule, the residual activity (RPS6KB2 (human)) was 103%, the residual activity (HIPK1 (human)) was 97.3% and the residual activity (PHKG1 (human)) was 73.3%. For the same molecule, the residual activity (CSNK1A1 (human)) was 98.6%, the residual activity (RPS6KA4 KD2 (human)) was 87% and the residual activity (ACVRL1 (human)) was 94.8%. The residual activity (TAOK3 (human)) was 87.6%, the residual activity (FER (human)) was 72.5% and the residual activity (ULK1 (human)) was 80.1%. It also gave a residual activity (TEC (human)) of 141%, a residual activity (FGFR3 (human)) of 80.4% and a residual activity (SLK (human)) of 89.8%. It also gave a residual activity (MELK (human)) of 87.4%, a residual activity (ACVR1B (human)) of 96.6% and a residual activity (PRKCH (human)) of 94%. The residual activity (PIM3 (human)) was 75.1%, the residual activity (KDR (human)) was 93.2% and the residual activity (MATK (human)) was 101%. For the same molecule, the residual activity (NLK (human)) was 94.8%, the residual activity (MAP3K14 (human)) was 118% and the residual activity (PKN1 (human)) was 89.6%. The residual activity (PTK2 (human)) was 93%, the residual activity (RET (human)) was 40.8% and the residual activity (HIPK3 (human)) was 94.5%. It also gave a residual activity (TNK2 (human)) of 92.7%, a residual activity (PRKACG (human)) of 88.4% and a residual activity (PDGFRA (human)) of 82.8%. The residual activity (MAP3K3 (human)) was 92.8%, the residual activity (MAP2K2 (human)) was 102% and the residual activity (MYO3B (human)) was 74.1%. The residual activity (PRKX (human)) was 94.8%, the residual activity (VRK1 (human)) was 104% and the residual activity (CSF1R (human)) was 52.5%. It also gave a residual activity (AURKC (human)) of 89.1%, a residual activity (ERBB4 (human)) of 71.2% and a residual activity (OXSR1 (human)) of 87.9%.
